How the values were obtained:
Experiment in all cases: relative viability (nuclei count vs DMSO), 5 days (fraction); higher = more cells survive
201T = tested on: 201T
Procedure, shortened: (§1)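 Relative viability equals treated-well nuclei counts divided by vehicle-well nuclei counts. Counts came from 4× images of lung cancer cell lines grown in 1536-well plates for 5 days after pin-tool dosing on the day after seeding. Dosing used one drug alone or a fixed anchor-drug dose plus five library-drug doses (not always all listed) in √10 steps, and values are medians of duplicate plates.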

COR-L23 = tested on: COR-L23
Procedure, shortened: as §1

EPLC-272H = tested on: EPLC-272H
Procedure, shortened: as §1

H3255 = tested on: H3255
Procedure, shortened: as §1

HCC-15 = tested on: HCC-15
Procedure, shortened: as §1

LOU-NH91 = tested on: LOU-NH91
Procedure, shortened: as §1

NCI-H1650 = tested on: NCI-H1650
Procedure, shortened: as §1

NCI-H1734 = tested on: NCI-H1734
Procedure, shortened: as §1

NCI-H1793 = tested on: NCI-H1793
Procedure, shortened: as §1

NCI-H2023 = tested on: NCI-H2023
Procedure, shortened: as §1

NCI-H2170 = tested on: NCI-H2170
Procedure, shortened: as §1

NCI-H2347 = tested on: NCI-H2347
Procedure, shortened: as §1

NCI-H2405 = tested on: NCI-H2405
Procedure, shortened: as §1

NCI-H3122 = tested on: NCI-H3122
Procedure, shortened: as §1

NCI-H322M = tested on: NCI-H322M
Procedure, shortened: as §1

NCI-H441 = tested on: NCI-H441
Procedure, shortened: as §1

NCI-H520 = tested on: NCI-H520
Procedure, shortened: as §1

NCI-H647 = tested on: NCI-H647
Procedure, shortened: as §1

PC-14 = tested on: PC-14
Procedure, shortened: as §1

SW 900 = tested on: SW 900
Procedure, shortened: as §1

UMC-11 = tested on: UMC-11
Procedure, shortened: as §1

Nc1ccn([C@@H]2O[C@H](CO)[C@@H](O)[C@@H]2O)c(=O)n1 [Cytarabine] + Cc1cc(Nc2cc(N3CCN(C)CC3)nc(Sc3ccc(NC(=O)C4CC4)cc3)n2)n[nH]1 [Tozasertib] (partner 0.1 µM)
relative viability (201T; first compound 0.005 µM): 0.886
relative viability (201T; first compound 0.01581 µM): 0.944
relative viability (201T; first compound 0.05 µM): 0.911
relative viability (201T; first compound 0.1581 µM): 0.837
relative viability (201T; first compound 0.5 µM): 0.706
relative viability (COR-L23; first compound 0.005 µM): 0.164
relative viability (COR-L23; first compound 0.01581 µM): 0.141
relative viability (COR-L23; first compound 0.05 µM): 0.159
relative viability (COR-L23; first compound 0.1581 µM): 0.123
relative viability (COR-L23; first compound 0.5 µM): 0.129
relative viability (EPLC-272H; first compound 0.005 µM): 0.294
relative viability (EPLC-272H; first compound 0.01581 µM): 0.199
relative viability (EPLC-272H; first compound 0.05 µM): 0.289
relative viability (EPLC-272H; first compound 0.1581 µM): 0.29
relative viability (EPLC-272H; first compound 0.5 µM): 0.261
relative viability (H3255; first compound 0.005 µM): 0.586
relative viability (H3255; first compound 0.01581 µM): 0.644
relative viability (H3255; first compound 0.05 µM): 0.786
relative viability (H3255; first compound 0.1581 µM): 0.604
relative viability (H3255; first compound 0.5 µM): 0.488
relative viability (HCC-15; first compound 0.005 µM): 0.413
relative viability (HCC-15; first compound 0.01581 µM): 0.57
relative viability (HCC-15; first compound 0.05 µM): 0.577
relative viability (HCC-15; first compound 0.1581 µM): 0.461
relative viability (HCC-15; first compound 0.5 µM): 0.354
relative viability (LOU-NH91; first compound 0.005 µM): 0.555
relative viability (LOU-NH91; first compound 0.01581 µM): 0.53
relative viability (LOU-NH91; first compound 0.05 µM): 0.672
relative viability (LOU-NH91; first compound 0.1581 µM): 0.411
relative viability (LOU-NH91; first compound 0.5 µM): 0.514
relative viability (NCI-H1650; first compound 0.005 µM): 0.294
relative viability (NCI-H1650; first compound 0.01581 µM): 0.33
relative viability (NCI-H1650; first compound 0.05 µM): 0.303
relative viability (NCI-H1650; first compound 0.1581 µM): 0.26
relative viability (NCI-H1650; first compound 0.5 µM): 0.213
relative viability (NCI-H1734; first compound 0.005 µM): 0.245
relative viability (NCI-H1734; first compound 0.01581 µM): 0.232
relative viability (NCI-H1734; first compound 0.05 µM): 0.178
relative viability (NCI-H1734; first compound 0.1581 µM): 0.117
relative viability (NCI-H1734; first compound 0.5 µM): 0.112
relative viability (NCI-H1793; first compound 0.005 µM): 0.346
relative viability (NCI-H1793; first compound 0.01581 µM): 0.32
relative viability (NCI-H1793; first compound 0.05 µM): 0.333
relative viability (NCI-H1793; first compound 0.1581 µM): 0.291
relative viability (NCI-H1793; first compound 0.5 µM): 0.332
relative viability (NCI-H2023; first compound 0.005 µM): 0.238
relative viability (NCI-H2023; first compound 0.01581 µM): 0.223
relative viability (NCI-H2023; first compound 0.05 µM): 0.176
relative viability (NCI-H2023; first compound 0.1581 µM): 0.101
relative viability (NCI-H2023; first compound 0.5 µM): 0.0955
relative viability (NCI-H2170; first compound 0.005 µM): 0.605
relative viability (NCI-H2170; first compound 0.01581 µM): 0.5
relative viability (NCI-H2170; first compound 0.05 µM): 0.409
relative viability (NCI-H2170; first compound 0.1581 µM): 0.386
relative viability (NCI-H2170; first compound 0.5 µM): 0.26
relative viability (NCI-H2347; first compound 0.005 µM): 0.553
relative viability (NCI-H2347; first compound 0.01581 µM): 0.427
relative viability (NCI-H2347; first compound 0.05 µM): 0.444
relative viability (NCI-H2347; first compound 0.1581 µM): 0.52
relative viability (NCI-H2347; first compound 0.5 µM): 0.402
relative viability (NCI-H2405; first compound 0.005 µM): 0.66
relative viability (NCI-H2405; first compound 0.01581 µM): 0.712
relative viability (NCI-H2405; first compound 0.05 µM): 0.56
relative viability (NCI-H2405; first compound 0.1581 µM): 0.429
relative viability (NCI-H2405; first compound 0.5 µM): 0.371
relative viability (NCI-H3122; first compound 0.005 µM): 0.389
relative viability (NCI-H3122; first compound 0.01581 µM): 0.407
relative viability (NCI-H3122; first compound 0.05 µM): 0.299
relative viability (NCI-H3122; first compound 0.1581 µM): 0.237
relative viability (NCI-H3122; first compound 0.5 µM): 0.161
relative viability (NCI-H322M; first compound 0.005 µM): 0.454
relative viability (NCI-H322M; first compound 0.01581 µM): 0.416
relative viability (NCI-H322M; first compound 0.05 µM): 0.432
relative viability (NCI-H322M; first compound 0.1581 µM): 0.364
relative viability (NCI-H322M; first compound 0.5 µM): 0.303
relative viability (NCI-H441; first compound 0.005 µM): 0.557
relative viability (NCI-H441; first compound 0.01581 µM): 0.637
relative viability (NCI-H441; first compound 0.05 µM): 0.597
relative viability (NCI-H441; first compound 0.1581 µM): 0.389
relative viability (NCI-H441; first compound 0.5 µM): 0.323
relative viability (NCI-H520; first compound 0.005 µM): 0.416
relative viability (NCI-H520; first compound 0.01581 µM): 0.463
relative viability (NCI-H520; first compound 0.05 µM): 0.478
relative viability (NCI-H520; first compound 0.1581 µM): 0.415
relative viability (NCI-H520; first compound 0.5 µM): 0.494
relative viability (NCI-H647; first compound 0.005 µM): 0.205
relative viability (NCI-H647; first compound 0.01581 µM): 0.22
relative viability (NCI-H647; first compound 0.05 µM): 0.0474
relative viability (NCI-H647; first compound 0.1581 µM): 0.073
relative viability (NCI-H647; first compound 0.5 µM): 0.0484
relative viability (PC-14; first compound 0.005 µM): 0.404
relative viability (PC-14; first compound 0.01581 µM): 0.448
relative viability (PC-14; first compound 0.05 µM): 0.248
relative viability (PC-14; first compound 0.1581 µM): 0.157
relative viability (PC-14; first compound 0.5 µM): 0.0594
relative viability (SW 900; first compound 0.005 µM): 0.555
relative viability (SW 900; first compound 0.01581 µM): 0.402
relative viability (SW 900; first compound 0.05 µM): 0.287
relative viability (SW 900; first compound 0.1581 µM): 0.233
relative viability (SW 900; first compound 0.5 µM): 0.134
relative viability (UMC-11; first compound 0.005 µM): 0.261
relative viability (UMC-11; first compound 0.01581 µM): 0.219
relative viability (UMC-11; first compound 0.05 µM): 0.222
relative viability (UMC-11; first compound 0.1581 µM): 0.231
relative viability (UMC-11; first compound 0.5 µM): 0.2

Reference: the supplement of paper PMC10307832
